Results published in patent publication US9802880B2, “Cannabigerol derivatives” (VIVACELL BIOTECHNOLOGY ESPAÑA S.L., priority 2014, dated 2017).

Experiments:
Nrf2 = Nrf2 transcriptional assay in HaCaT-ARE-Luc cells; assay type: cell-based; conditions: 6 h, FIG. 4
Protocol: HaCaT-ARE-Luc cells were incubated for 6 h with compounds CBG-Q compound I) and with compounds I to VI (A) or with compounds VII to XII (B) at the indicated concentrations, and protein lysates were prepared and analysed for luciferase activity. The pro-oxidant tert-Butylhydroquinone (tBHQ) at 20 μM, a compound that induces cellular oxidative stress, was used as positive control. […] The results ratify that the reactive electrophilic activity associated to CBG-Q (compound I) is missing in all the compounds (derivatives in position 2) described in the present invention.
To study the activity of the compounds on the Nrf2 pathway we generated the HaCaT-ARE-Luc cell line. Nqo1 ARE-Luc reporter plasmid and pPGK-Puro plasmid were co-transfected into HaCat cells using Lipofectamine© 2000 transfection reagent (Life Technologies, Carlsbad, Ca, USA). Stable transformants were selected and maintained in RPMI 1640 containing 10% FBS, 1% penicillin-streptomycin and […] puromycin. HaCaT-ARE-Luc cells were incubated for 6 h with CBG-Q (compound I) and with compounds (II)-(VI) (A) or with compounds (VII)-(XII) (B) at the indicated concentrations, and protein lysates were prepared and analysed for luciferase activity as described in example 1. The prooxidant tert-Butylhydroquinone (tBHQ) at 20 μM was used as positive control. […]

3NP-lesioned mice = test: Huntington's disease 3NP model, behavioral score; assay type: in vivo, C57BL/6 mice; conditions: 10 mg/kg i.p., four injections, FIG. 9
Protocol: Mice were subjected to behavioral tests for determining their neurological status after the treatment with compounds I (10 mg/kg) (A), III (10 mg/kg) (B) and XII (10 mg/kg) (C). Hind limb clasping, Locomotor activity, Hind limb dystonia and Truncal Dystonia were rated from 0 to 2 based on severity: a score of 0 typically indicates normal function and 2 seriously affected. Values are expressed as means±SEM for 8 animals per group.
Lesions of the striatum were induced with 3-NP in adult (16 week old; 30 g) male C57BL/6 mice (Harlan Ibérica, Barcelona, Spain). To this end, mice were subjected to seven intraperitoneal (i.p.) injections of 3NP (one injection each 12 hours) at a dose of 50 mg/kg (prepared in phosphate-buffered saline) for 3 days. These animals and their respective non-lesioned controls were used for pharmacological studies with compounds CBG-Q (compound I) and with compounds III and XII (FIG. 9). At least 6-8 animals were used per experimental group. Treatments consisted of four i.p. injections of the compounds at the indicated doses (one injection each 24 hours), or vehicle (DMSO 0.2%, BSA 5% in PBS) 30 min before the injections of 3NP. All animals were euthanized 12 hours after the last 3NP injection. Once euthanized, animals were dissected and their brains were rapidly removed. The right hemisphere was used to dissect the striatum, which was quickly frozen in RNAlater (Sigma-Aldrich, Germany) to analyzed inflammatory markers were by Real Time PCR. The left hemisphere was fixed in fresh 4% paraformaldehyde (in 0.1M phosphate buffered-saline) for 48 hours at 4° C. and embedded in paraffin wax for histological analysis. Mice were subjected to behavioral tests for determining their neurological status. We evaluated the general locomotor activity, the hindlimb clasping and dystonia, and the truncal dystonia. All behavioral tests were conducted prior to drug injections to avoid acute effects of the compounds under investigation.

MO3.13 cells = test: Cytotoxicity, MTT assay, MO3.13 cells; assay type: cell-based; conditions: 24 h, FIG. 3C
Protocol: (§1) The cell lines N2a (A), HT22 (B) and MO3.13 (C) cells were incubated for 24 h with the indicated doses of CBG-Q (Compound I) versus compounds II to XII, and cell viability was quantified by MTT assay. […] Control was set as 100% and data were referred to that value.
(§2) Electrophilic quinones induce cytotoxicity and activate the Nrf2 pathway, a cellular sensor of reactive oxygen species generation. In FIG. 3 it is analyzed the induced cell death in three different types of cells (N2a, HT22 and MO3.13) by compounds CBG-Q (compound I) and compounds (II) to (XII).
(§3) N2A, HT22 and MO3.13 cell viability was determined by the MTT assay. Briefly, cells were seeded at a density of 10^4 cells/well in 96-well plates, 200 μl cell suspension per well, and cultured for 24 hours. Cells were then incubated with several concentrations of the compounds for 24 hours. […] Finally the absorbance was measured at 550 nm using a TriStar LB 941 (Berthold Technologies, GmbH & Co. KG). […] The cell lines N2a (FIG. 3A), HT22 (FIG. 3B) and MO3.13 (FIG. 3C) cells were incubated for 24 h with the indicated doses of compounds CBG-Q (compound I) and compounds (II) to (XII), and cell viability was quantified by MTT assay. Results are shown as mean±S.D. from at least three independent experiments, and expressed as percentage of cell viability against the control sample (−). […]

N2a cells = test: Cytotoxicity, MTT assay, N2a cells; assay type: cell-based; conditions: 24 h, FIG. 3A
Protocol: as §1, §2, §3

HT22 cells = test: Cytotoxicity, MTT assay, HT22 cells; assay type: cell-based; conditions: 24 h, FIG. 3B
Protocol: as §1, §2, §3

CCCCCC1=CC(=O)C(C/C=C(\C)CCC=C(C)C)=C(O)C1=O [CBG-Q, Cannabigerol hydroxy quinone]
Nrf2 activation (ARE-luciferase activity; reactive electrophilic activity) (Nrf2): induces activation | clinical symptoms induced by 3-NP intoxication (hind limb clasping, locomotor activity, hind limb dystonia, truncal dystonia) (3NP-lesioned mice): unable to prevent the clinical symptoms | cytotoxic activity (cell viability, MTT) (MO3.13 cells): cytotoxic activity | cytotoxic activity (cell viability, MTT) (N2a cells): cytotoxic activity | cytotoxic activity (cell viability, MTT) (HT22 cells): cytotoxic activity
